20 compounds from patent publication US9546152B2 (MERCK SHARP & DOHME CORP., priority 2012, dated 2017) can be followed below.

Structures are written as SMILES. Bounds are passed on as bounds.

Assay [1] has as its target T1, human orexin-2 receptor (Homo sapiens (Human), UniProt O43614). In words: FLIPR Ca2+ Flux Assay, orexin-2 receptor. It is filed as cell-based. The settings on record: CHO cells expressing the human orexin-2 receptor; agonist 70 pM Ala-6,12 human orexin-A; read-out: hOX2R FLIPR IC50. An outline of the steps:
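Antagonism read as peak Ca2+ fluorescence (FLIPR, 1 s intervals over 5 min) relative to the 70 pM Ala-6,12 orexin-A response without antagonist. Cells: CHO expressing rat OX1R or human OX2R, Fluo-4AM-loaded; HBSS/20 mM HEPES/0.1% BSA/2.5 mM probenecid, pH 7.4.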
On the technique in general: Calcium flux is commonly read through the fluorescence of an indicator in the cells.

For assay [2], the target named is rat orexin-1 receptor (Rattus norvegicus (Rat), UniProt P56718). The assay can be described thus: FLIPR Ca2+ Flux Assay, orexin-1 receptor. The note with it: CHO cells expressing the rat orexin-1 receptor; agonist 70 pM Ala-6,12 human orexin-A; read-out: hOX1R FLIPR IC50. It is filed as cell-based. On the procedure: In a typical experiment the OX1 and OX2 receptor antagonistic activity of the compounds of the present invention was determined in accordance with the following experimental method. For intracellular calcium measurements, Chinese hamster ovary (CHO) cells expressing the rat orexin-1 receptor or the human orexin-2 receptor, are grown in Iscove's modified DMEM containing 2 mM L-glutamine, […], 1% hypoxanthine-thymidine supplement, 100 U/ml penicillin, 100 μg/ml streptomycin and 10% heat-inactivated fetal calf serum (FCS). The cells are seeded at 20,000 cells/well into Becton-Dickinson black 384-well clear bottom sterile plates coated with poly-D-lysine. All reagents were from GIBCO-Invitrogen Corp. The seeded plates are incubated overnight at 37° C. and 5% CO2. Ala-6,12 human orexin-A as the agonist is prepared as a 1 mM stock solution in 1% bovine serum albumin (BSA) and diluted in assay buffer (HBSS containing 20 mM HEPES, 0.1% BSA and 2.5 mM probenecid, pH7.4) for use in the assay at a final concentration of 70 pM. Test compounds are prepared as 10 mM stock solution in DMSO, then diluted in 384-well plates, first in DMSO, then assay buffer. On the day of the assay, cells are washed 3 times with 100 μl assay buffer and then incubated for 60 min (37° C., 5% CO2) in 60 μl assay buffer containing 1 μM Fluo-4AM ester, 0.02% pluronic acid, and 1% BSA. The dye loading solution is then aspirated and cells are washed 3 times with 100 μl assay buffer. 30 μl of that same buffer is left in each well. Within the Fluorescent Imaging Plate Reader (FLIPR, Molecular Devices), test compounds are added to the plate in a volume of 25 μl, incubated for 5 min and finally 25 μl of agonist is added. Fluorescence is measured for each well at 1 second intervals for 5 minutes and the height of each fluorescence peak is compared to the height of the fluorescence peak induced by 70 pM Ala-6,12 orexin-A with buffer in place of antagonist. […] Alternatively, compound potency can be assessed by a radioligand binding assay (described in Bergman et. al. Bioorg. Med. Chem. Lett. 2008, 18, 1425-1430) in which the inhibition constant (Ki) is determined in membranes prepared from CHO cells expressing either the OX1 or OX2 receptor. The intrinsic orexin receptor antagonist activity of a compound which may be used in the present invention may be determined by these assays.

The target of assay [3] is T1, human orexin-2 receptor. The assay can be described thus: radioligand binding assay, orexin-2 receptor. The settings on record: membranes prepared from CHO cells expressing the OX2 receptor; read-out: hOX2R BIND hKi.

T1 sequence (O43614 whole entry): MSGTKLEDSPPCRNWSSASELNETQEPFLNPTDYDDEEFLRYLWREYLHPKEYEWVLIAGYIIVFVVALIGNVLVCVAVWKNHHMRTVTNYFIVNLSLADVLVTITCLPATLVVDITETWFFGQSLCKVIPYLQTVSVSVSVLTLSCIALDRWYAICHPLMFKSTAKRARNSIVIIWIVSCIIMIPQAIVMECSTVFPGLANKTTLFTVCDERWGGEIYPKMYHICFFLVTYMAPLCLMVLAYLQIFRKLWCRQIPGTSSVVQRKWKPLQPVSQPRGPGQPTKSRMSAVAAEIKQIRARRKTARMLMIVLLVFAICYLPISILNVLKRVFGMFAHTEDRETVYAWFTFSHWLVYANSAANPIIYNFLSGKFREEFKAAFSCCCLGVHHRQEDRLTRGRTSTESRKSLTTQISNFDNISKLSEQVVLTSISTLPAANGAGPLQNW
rat orexin-1 receptor, sequence (P56718 whole entry): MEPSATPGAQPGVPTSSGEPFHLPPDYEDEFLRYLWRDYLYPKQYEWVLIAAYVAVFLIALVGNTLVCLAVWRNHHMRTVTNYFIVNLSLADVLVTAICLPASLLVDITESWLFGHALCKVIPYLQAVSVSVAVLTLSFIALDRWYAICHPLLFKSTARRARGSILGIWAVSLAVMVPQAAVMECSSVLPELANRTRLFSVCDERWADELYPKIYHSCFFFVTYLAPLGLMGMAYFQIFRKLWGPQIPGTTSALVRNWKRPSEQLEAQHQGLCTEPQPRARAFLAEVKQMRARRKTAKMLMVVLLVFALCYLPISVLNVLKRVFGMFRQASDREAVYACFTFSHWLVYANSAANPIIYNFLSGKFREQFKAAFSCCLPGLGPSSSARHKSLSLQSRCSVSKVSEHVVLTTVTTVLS

For orientation: IC50 means the concentration that inhibits the measured activity by half. Turning to `Cc1c(C#N)ccnc1O[C@@H]1CC[C@@H](C)N(C(=O)c2sccc2-c2nccs2)C1` [Example 37, 3-methyl-2-{[(3R,6R)-6-methyl-1-{[3-(1,3-thiazol-2-yl)thiophen-2-yl]carbonyl}piperidin-3-yl]oxy}pyridine-4-carbonitrile], the IC50 in assay [1] worked out at 11 nM; in assay [2], 2270 nM. Further, the Ki in assay [3] was found to be 1.2 nM.

As for `Cc1c(C#N)ccnc1O[C@@H]1CC[C@@H](C)N(C(=O)c2sccc2-c2cscn2)C1` [Example 38, 3-methyl-2-{[(3R,6R)-6-methyl-1-{[3-(1,3-thiazol-4-yl)thiophen-2-yl]carbonyl}piperidin-3-yl]oxy}pyridine-4-carbonitrile], the IC50 in assay [1] turned out to be 11 nM; in assay [2], 1640 nM. The Ki in assay [3] stood at 0.9 nM.

For the compound `Cc1c(C#N)ccnc1O[C@@H]1CC[C@@H](C)N(C(=O)c2ccsc2-n2nccn2)C1` [Example 39, 3-methyl-2-{[(3R,6R)-6-methyl-1-{[2-(2H-1,2,3-triazol-2-yl)thiophen-3-yl]carbonyl}piperidin-3-yl]oxy}pyridine-4-carbonitrile], the IC50 in assay [1] turned out to be 9 nM; in assay [2] it was 1510 nM. Further, in assay [3], the Ki stood at 0.7 nM.

As for `Cc1nnn(-c2ccccc2C(=O)N2C[C@H](Oc3nccc(C#N)c3C)CC[C@H]2C)n1` [Example 40, 3-methyl-2-{[(3R,6R)-6-methyl-1-{[2-(5-methyl-2H-tetrazol-2-yl)phenyl]carbonyl}piperidin-3-yl]oxy}pyridine-4-carbonitrile], the half-maximal inhibitory concentration (IC50) is 11 nM in assay [1] and 707 nM in assay [2]. In assay [3], the Ki is 0.6 nM.

Take `Cc1nc(C(=O)N2C[C@H](Oc3nccc(C#N)c3C)CC[C@H]2C)c(-c2ccc(F)cc2)s1` [Example 41, 2-{[(3R,6R)-1-{[5-(4-fluorophenyl)-2-methyl-1,3-thiazol-4-yl]carbonyl}-6-methylpiperidin-3-yl]oxy}-3-methylpyridine-4-carbonitrile]: the 50% inhibitory concentration (IC50) in assay [1] amounted to 48 nM; in assay [2] it was 1200 nM. Moreover, the Ki in assay [3] came to 4.6 nM.

Consider `Cc1nc(-c2ccccc2C(=O)N2C[C@H](Oc3nccc(C#N)c3C)CC[C@H]2C)no1` [Example 42, 3-methyl-2-{[(3R,6R)-6-methyl-1-{[2-(5-methyl-1,2,4-oxadiazol-3-yl)phenyl]carbonyl}piperidin-3-yl]oxy}pyridine-4-carbonitrile], for which the IC50 in assay [1] stood at 12 nM; in assay [2], 776 nM. Moreover, the Ki in assay [3] was determined as 1 nM.

Turning to `Cc1cnn(-c2ccccc2C(=O)N2C[C@H](Oc3nccc(C#N)c3C)CC[C@H]2C)c1` [Example 43, 3-methyl-2-{[(3R,6R)-6-methyl-1-{[2-(4-methyl-1H-pyrazol-1-yl)phenyl]carbonyl}piperidin-3-yl]oxy}pyridine-4-carbonitrile], the half-maximal inhibitory concentration (IC50) in assay [1] stood at 10 nM; in assay [2], 722 nM. In addition, the Ki in assay [3] was 0.9 nM.

Regarding `Cc1c(C#N)ccnc1O[C@@H]1CC[C@@H](C)N(C(=O)c2cn(C)nc2-c2ccccc2)C1` [Example 45, 3-methyl-2-({(3R,6R)-6-methyl-1-[(1-methyl-3-phenyl-1H-pyrazol-4-yl)carbonyl]piperidin-3-yl}oxy)pyridine-4-carbonitrile], the IC50 in assay [1] was found to be 91 nM; in assay [2], 4960 nM. Further, the Ki in assay [3] worked out at 12.7 nM.

With `Cc1c(C#N)ccnc1O[C@@H]1CC[C@@H](C)N(C(=O)c2cn(C)nc2-c2nccs2)C1` [Example 46, 3-methyl-2-{[(3R,6R)-6-methyl-1-{[1-methyl-3-(1,3-thiazol-2-yl)-1H-pyrazol-4-yl]carbonyl}piperidin-3-yl]oxy}pyridine-4-carbonitrile], the figures for the IC50 in assay [1] and in assay [2] were 111 nM and more than 10000 nM, respectively. Further, the Ki in assay [3] is 14.2 nM.

In the case of `Cc1nsc(-c2ccccc2)c1C(=O)N1C[C@H](Oc2nccc(C#N)c2C)CC[C@H]1C` [Example 47, 3-methyl-2-({(3R,6R)-6-methyl-1-[(3-methyl-5-phenylisothiazol-4-yl)carbonyl]piperidin-3-yl}oxy)pyridine-4-carbonitrile], the IC50 came to 82 nM in assay [1] and 2360 nM in assay [2]. In assay [3], the Ki turned out to be 4.9 nM.

Regarding `COc1ccc(-c2ccccc2C(=O)N2C[C@H](Oc3nccc(C#N)c3C)CC[C@H]2C)cn1` [Example 49, 2-{[(3R,6R)-1-{[2-(6-methoxypyridin-3-yl)phenyl]carbonyl}-6-methylpiperidin-3-yl]oxy}-3-methylpyridine-4-carbonitrile], the concentration for half-maximal inhibition (IC50) in assay [1] came out at 15 nM; in assay [2], 469 nM. Besides, the Ki in assay [3] came out at 0.5 nM.

On to `Cc1ccc(C(=O)N2C[C@H](Oc3nccc(C#N)c3C)CC[C@H]2C)c(C2CC2)c1` [Example 51, 2-({(3R,6R)-1-[(2-cyclopropyl-4-methylphenyl)carbonyl]-6-methylpiperidin-3-yl}oxy)-3-methylpyridine-4-carbonitrile], for which the IC50 in assay [1] was determined as 21 nM; in assay [2], 2100 nM. Further, the Ki in assay [3] was found to be 0.6 nM.

`COc1ccc(C(=O)N2C[C@H](Oc3nccc(C#N)c3C)CC[C@H]2C)c(C2CC2)c1` [Example 52, 2-({(3R,6R)-1-[(2-cyclopropyl-4-methoxyphenyl)carbonyl]-6-methylpiperidin-3-yl}oxy)-3-methylpyridine-4-carbonitrile]: the IC50 in assay [1] turned out to be 56 nM; in assay [2] it was 7030 nM. The Ki in assay [3] stood at 4.4 nM.

For the compound `Cc1c(C#N)ccnc1O[C@@H]1CC[C@@H](C)N(C(=O)c2ccc(F)cc2C2CC2)C1` [Example 53, 2-({(3R,6R)-1-[(2-cyclopropyl-4-fluorophenyl)carbonyl]-6-methylpiperidin-3-yl}oxy)-3-methylpyridine-4-carbonitrile], the 50% inhibitory concentration (IC50) in assay [1] was determined as 26 nM; in assay [2] it was 5780 nM. Also, the Ki in assay [3] stood at 1.6 nM.

Take `Cc1c(C#N)ccnc1O[C@@H]1CC[C@@H](C)N(C(=O)c2ccc(CO)cc2-c2ccccc2)C1` [Example 54, 2-{[(3R,6R)-1-{[5-(hydroxymethyl)biphenyl-2-yl]carbonyl}-6-methylpiperidin-3-yl]oxy}-3-methylpyridine-4-carbonitrile]: the half-inhibitory concentration (IC50) in assay [1] turned out to be 37 nM; in assay [2] it was 1390 nM. In assay [3], the Ki is 3.2 nM.

With `Cc1c(C#N)ccnc1O[C@@H]1CC[C@@H](C)N(C(=O)c2cc(F)ccc2-c2ccccn2)C1` [Example 56], the values for the IC50 in assay [1] and in assay [2] were 30 nM and 2120 nM, respectively. The Ki in assay [3] worked out at 1.4 nM.

Turning to `Cc1nc(C(=O)N2C[C@H](Oc3nccc(C#N)c3C)CC[C@H]2C)c(-c2ccccc2)s1` [Example 57, 3-methyl-2-({(3R,6R)-6-methyl-1-[(2-methyl-5-phenyl-1,3-thiazol-4-yl)carbonyl]piperidin-3-yl}oxy)pyridine-4-carbonitrile], the IC50 in assay [1] is 23 nM; in assay [2], 521 nM. Further, the Ki in assay [3] turned out to be 1.4 nM.

In the case of `Cc1noc(-c2ccccc2C(=O)N2C[C@H](Oc3nccc(C#N)c3C)CC[C@H]2C)n1` [Example 58, 3-methyl-2-{[(3R,6R)-6-methyl-1-{[2-(3-methyl-1,2,4-oxadiazol-5-yl)phenyl]carbonyl}piperidin-3-yl]oxy}pyridine-4-carbonitrile], the half-maximal inhibitory concentration (IC50) in assay [1] came out at 12 nM; in assay [2], 733 nM. Further, in assay [3], the Ki amounted to 0.5 nM.

Regarding `CCc1ccccc1C(=O)N1C[C@H](Oc2nccc(C#N)c2C)CC[C@H]1C` [Example 59, 2-({(3R,6R)-1-[(2-ethylphenyl)carbonyl]-6-methylpiperidin-3-yl}oxy)-3-methylpyridine-4-carbonitrile], the concentration for half-maximal inhibition (IC50) is 31 nM in assay [1] and more than 10000 nM in assay [2]. For the same compound, the Ki in assay [3] was 3.7 nM.

`Cc1c(C#N)ccnc1O[C@@H]1CC[C@@H](C)N(C(=O)c2cccnc2-c2ccccc2)C1` [Example 60, 3-methyl-2-({(3R,6R)-6-methyl-1-[(2-phenylpyridin-3-yl)carbonyl]piperidin-3-yl}oxy)pyridine-4-carbonitrile]: the figures for the concentration for half-maximal inhibition (IC50) in assay [1] and in assay [2] were 26 nM and 4670 nM, respectively. Further, the Ki in assay [3] was 2.6 nM.
